Experimental data taken from US7452505B2, “Method for analyzing blood test sample and dry analytical element and analytical kit utilizing the method” (Fujifilm Corporation, priority 2002, dated 2008).

Each compound was assayed on blood platelet-rich plasma (assay: Evaluation of LDH activity of blood platelet-rich plasma samples with surfactant (JSCC transferable method)). Conditions: sample with 0.6% of surfactant, sample without surfactant taken as 100; 37° C.
Format: cell-based, human
From the text: (2) Evaluation of LDH Activity
In Table 2, “LDH activity” means the activity of the test sample with 0.6% of surfactant, assuming that that of the test sample without surfactant to be 100.

Compared with `C[C@H](CCC(=O)O)[C@H]1CC[C@H]2[C@@H]3CC[C@@H]4C[C@H](O)CC[C@]4(C)[C@H]3C[C@H](O)[C@]12C` [deoxycholic acid, reference compound], POE (5) oleylether [EMALEX 505] is higher in “LDH Activity” value: 199 for the first, 295 for the second.

Compared with “POE (6) perfluoroalkyl ethoxylate [Example F-1405]”, POE (10) octylether [Nissan Nonion] is higher in “LDH Activity” value: 102 for the first, 694 for the second.

Compared with “POE (10) perfluoroalkyl [Example F-142D]”, POE (12) oleylether [EMALEX 512] is higher in “LDH Activity” value: 104 for the first, 307 for the second.

Compared with POE (20) oleylether [EMALEX 520], sodium α-olefin sufonate [NIKKOL OS-14] is lower in “LDH Activity” value: 297 for the first, 212 for the second.
